Biological target: T1, (H+/K+)-ATPase (Canis lupus familiaris, UniProt P50996)
T1 construct: The microsomes retained at the 15%-30% sucrose interface, after centrifugation at 250,000×g for sixty minutes, were used as the source of (H^+/K^+)-ATPase; from tissue; host or cells: gastric glandular mucosa of mongrel dogs (microsomal fraction, lyophilized)
Assay: Inhibition of (H+/K+)-ATPase from canine gastric mucosa (inorganic phosphate release)
Format: biochemical
Conditions: canine gastric mucosa microsomes, pH 6.0, 30 min preincubation at 37° C.; read-out: (H+/K+)-ATPase IC50
Description: Mongrel dogs weighing 15 to 25 kilograms were fasted for twenty-four hours, with water provided ad libitum. The animals were anesthetized with pentobarbital and the stomachs were removed. Subsequent tissue manipulations and subcellular fractionations were performed at 0° C. to 4° C. After the stomachs were cut open and rinsed with tap water, the antral and cardiac regions were removed and the remaining tissue was rinsed three times in saline. The glandular mucosa was removed mechanically, chopped finely in a medium containing 10 mM Tris hydrochloride (pH 7.4) and 250 mM sucrose, and homogenized. The homogenate was centrifuged at 20,000×g for twenty minutes and the pellet discarded. The supernatant was then centrifuged at 150,000×g for ninety minutes and the supernatant discarded. The pellet was resuspended in the Tris-HCl/sucrose medium by homogenization. Part (2 ml) of the resultant microsomal suspension was layered onto a step gradient consisting of 9 ml of 15% sucrose above 12 ml of 30% sucrose, each sucrose solution being buffered with 10 mM Tris hydrochloride (pH 7.4) containing 0.01% sodium azide. The microsomes retained at the 15%-30% sucrose interface, after centrifugation at 250,000×g for sixty minutes, were used as the source of (H^+/K^+)-ATPase. Microsomal preparations were lyophilized, a process that assured potassium ion permiability, and stored at −10° C. until used.
(H^+/K^+)-ATPase activity for each test compound was determined, in duplicate, by measuring the release of inorganic phosphate, which was assayed according to the method of J. ChandraRajan and L. Klein, Anal. Biochem., 72 , 407 (1976). The (H^+/K^+)-ATPase assay medium consisted of 20 mm mes-Tris (pH 6.0), 5 mM magnesium chloride, 25 mM sucrose, and 4 mM Tris-ATP with or without 20 mM potassium chloride in a total volume of 2 ml. Microsomal suspensions (20 to 60 mcl, containing about 25 mcg protein) were added to the assay medium, without Tris-ATP, and then preincubated with a test compound for thirty minutes at 37° C. The assay was initiated by adding Tris-ATP and the mixture was incubated another thirty minutes at 37° C. A 200-mcl aliquot of the assay mixture was then added to 1.4 ml of a solution consisting of 0.1 M sodium acetate (pH 4.0) and 10% sodium dodecylsulfate, followed by the addition of 200 mcl each of 1% ammonium molybdate and 1% ascorbic acid. At least fifteen minutes later, the optical absorbance at 870 nm (which was proportional to inorganic phosphate concentration up to 100 nmoles per tube, as determined by a standard curve) was obtained. Enzyme activity was linear with incubation time.
(H^+/K^+)-ATPase activity is represented by the difference between the measured activities in the presence of potassium-ion (K^+-stimulated) and in the absence of potassium ion (basal).

T1 sequence (P50996 whole entry): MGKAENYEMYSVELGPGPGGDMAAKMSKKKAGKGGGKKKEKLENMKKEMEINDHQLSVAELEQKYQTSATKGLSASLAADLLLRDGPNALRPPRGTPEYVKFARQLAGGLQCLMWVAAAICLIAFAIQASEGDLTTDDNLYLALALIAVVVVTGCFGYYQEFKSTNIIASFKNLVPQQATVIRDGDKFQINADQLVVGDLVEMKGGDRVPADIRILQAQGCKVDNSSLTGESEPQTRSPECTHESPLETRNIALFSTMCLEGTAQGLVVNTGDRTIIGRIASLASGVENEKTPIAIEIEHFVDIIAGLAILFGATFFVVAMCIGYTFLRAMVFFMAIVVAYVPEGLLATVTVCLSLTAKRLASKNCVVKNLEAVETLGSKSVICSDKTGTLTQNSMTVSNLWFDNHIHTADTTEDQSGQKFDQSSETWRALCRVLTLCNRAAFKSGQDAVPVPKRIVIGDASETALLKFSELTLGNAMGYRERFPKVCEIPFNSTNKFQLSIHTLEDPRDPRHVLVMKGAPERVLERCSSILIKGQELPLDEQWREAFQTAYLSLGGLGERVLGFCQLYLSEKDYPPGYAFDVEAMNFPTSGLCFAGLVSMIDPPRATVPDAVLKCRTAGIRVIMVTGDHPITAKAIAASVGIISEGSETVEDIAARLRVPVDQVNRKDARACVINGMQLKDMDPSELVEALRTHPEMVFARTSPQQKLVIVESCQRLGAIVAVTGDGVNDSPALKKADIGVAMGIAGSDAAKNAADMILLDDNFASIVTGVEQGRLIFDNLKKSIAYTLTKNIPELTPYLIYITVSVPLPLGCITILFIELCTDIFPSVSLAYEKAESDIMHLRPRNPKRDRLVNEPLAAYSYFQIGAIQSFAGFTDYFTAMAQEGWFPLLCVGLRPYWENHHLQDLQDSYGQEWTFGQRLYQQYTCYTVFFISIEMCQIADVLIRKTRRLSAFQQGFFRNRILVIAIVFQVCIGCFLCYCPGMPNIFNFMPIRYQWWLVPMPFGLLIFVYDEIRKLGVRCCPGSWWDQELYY
T1 sequence (P33704 whole entry partner): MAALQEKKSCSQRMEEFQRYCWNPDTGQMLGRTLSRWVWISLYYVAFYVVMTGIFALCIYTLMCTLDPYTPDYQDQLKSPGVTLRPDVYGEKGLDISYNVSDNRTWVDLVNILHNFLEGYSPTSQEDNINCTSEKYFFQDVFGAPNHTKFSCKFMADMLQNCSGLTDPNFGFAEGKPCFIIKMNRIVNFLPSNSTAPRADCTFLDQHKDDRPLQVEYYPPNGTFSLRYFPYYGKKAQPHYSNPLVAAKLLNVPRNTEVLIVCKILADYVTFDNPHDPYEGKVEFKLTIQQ

Compared with Cc1cc(C)c2nc([S+]([O-])Cc3cccc(N)n3)[nH]c2c1 (centres unmarked) [Example 103, 6-[[(4,6-Dimethyl-1H-benzimidazol-2-yl)-sulfinyl]methyl]-2-pyridinamine], Cc1cc2nc([S+]([O-])Cc3cccc(N)n3)[nH]c2cc1C (centres unmarked) [Example 101, 6-[[(5,6-Dimethyl-1H-benzimidazol-2-yl)-sulfinyl]methyl]-2-pyridinamine] is 2.5-fold lower in IC50: 1.8 µM for the first, 0.72 µM for the second.

Cc1ccc2[nH]c([S+]([O-])Cc3ccc(C)c(C)c3N)nc2c1 (centres unmarked) [Example 63, 2-[[(5-Methyl-1H-benzimidazol-2-yl)sulfinyl]-methyl]-5,6-dimethylbenzenamine hemihydrate] and Cc1cc(C)c(N)c(C[S+]([O-])c2nc3ccccc3[nH]2)c1 (centres unmarked) [Example 30, 2-[(1H-Benzimidazol-2-ylsulfinyl)methyl]-4,6-dimethylbenzenamine hemihydrate] are within 1.5-fold of each other in IC50: 0.71 µM for the first, 0.85 µM for the second.

Going from Cc1ccc2[nH]c([S+]([O-])Cc3cccc(N)n3)nc2c1 (centres unmarked) [Example 89, 6-[[(5-Methyl-1H-benzimidazol-2-yl)-sulfinyl]methyl]-2-pyridinamine] to Nc1cccc(C[S+]([O-])c2nc3cc(Cl)ccc3[nH]2)n1 (centres unmarked) [Example 93, 6-[[(5-Chloro-1H-benzimidazol-2-yl)-sulfinyl]methyl]-2-pyridinamine], the IC50 rises from 1.68 µM to 6.9 µM (4.1-fold).

Compared with COc1cc2nc([S+]([O-])Cc3cccc(N)n3)[nH]c2cc1OC (centres unmarked) [Example 99, 6-[[(5,6-Dimethoxy-1H-benzimidazol-2-yl)-sulfinyl]methyl]-2-pyridinamine ¼ hydrate], COc1cc2nc([S+]([O-])Cc3cc(C)ccc3N)[nH]c2cc1OC (centres unmarked) [Example 75] is 5.1-fold higher in IC50: 23.7 µM for the first, 120 µM for the second. The first is the more potent here.

First: Nc1ccc(C[S+]([O-])c2nc3ccccc3[nH]2)cn1 (centres unmarked) [Example 111, 5-[(1H-Benzimidazol-2-ylsulfinyl)methyl]-2-pyridinamine ¼ hydrate]
Second: Cc1ccc(C)c(C[S+]([O-])c2nc3ccccc3[nH]2)c1N (centres unmarked) [Example 55, 2-[(1H-Benzimidazol-2-ylsulfinyl)methyl]-3,6-dimethylbenzenamine monohydrate]
The IC50 of the first is 42-fold higher: 34.8 µM for the first, 0.82 µM for the second. The second is the more potent here.

COc1cccc(C[S+]([O-])c2nc3cc(C(F)(F)F)ccc3[nH]2)c1N (centres unmarked) [Example 67] and Nc1cccc(C[S+]([O-])c2nc3cc(C(F)(F)F)ccc3[nH]2)n1 (centres unmarked) [Example 95, 6-[[[5-(Trifluoromethyl)-1H-benzimidazol-2-yl]sulfinyl]methyl]-2-pyridinamine] are within 1.5-fold of each other in IC50: 8.5 µM for the first, 6.95 µM for the second.

First: Cc1cc(N)c(C[S+]([O-])c2nc3ccccc3[nH]2)c(C)c1C (centres unmarked) [Example 77, 2-[(1H-Benzimidazol-2-ylsulfinyl)methyl]-3,4,5-trimethylbenzenamine hemihydrate]
Second: Cc1ccc(C)c(C[S+]([O-])c2nc3cc(C(F)(F)F)ccc3[nH]2)c1N (centres unmarked) [Example 65]
The IC50 of the first is 11-fold higher: 16 µM for the first, 1.5 µM for the second.

First: Nc1cccc(C[S+]([O-])c2nc3cc(CO)ccc3[nH]2)n1 (centres unmarked) [Example 105, 6-[[[5-(Hydroxymethyl)-1H-benzimidazol-2-yl]sulfinyl]methyl]-2-pyridinamine ¼ hydrate]
Second: CCOc1ccc2[nH]c([S+]([O-])Cc3cccc(N)n3)nc2c1 (centres unmarked) [Example 97, 6-[[(5-Ethoxy-1H-benzimidazol-2-yl)-sulfinyl]methyl]-2-pyridinamine]
The IC50 of the first is 3.1-fold higher: 9.5 µM for the first, 3.1 µM for the second. The second is the more potent here.

First: Cc1cccc2[nH]c([S+]([O-])Cc3cccc(N)n3)nc12 (centres unmarked) [Example 87, 6-[[(4-Methyl-1H-benzimidazol-2-yl)-sulfinyl]methyl]-2-pyridinamine]
Second: CC(C)(C)CNc1cccc(C[S+]([O-])c2nc3ccccc3[nH]2)n1 (centres unmarked) [Example 107, 6-[(1H-Benzimidazol-2-ylsulfinyl)methyl]-N-(2,2-dimethylpropyl)-2-pyridinamine ¼ hydrate]
The IC50 of the first is 4.1-fold lower: 2.2 µM for the first, 9.1 µM for the second.

Tested on: not given
Assay: not given
Conditions: not given

Compared with Nc1ccc(C(F)(F)F)cc1CSc1nc2ccccc2[nH]1 [Example 48, 2-[(1H-Benzimidazol-2-ylthio)methyl]-4-(trifluoromethyl)benzenamine], Nc1ccc(Cl)cc1CSc1nc2ccccc2[nH]1 [Example 15, 2-[(1H-Benzimidazol-2-ylthio)methyl]-4-chlorobenzenamine] is lower in melting point: 130 to 137 °C for the first, 114 to 118 °C for the second.

First: Cc1cccc(CSc2nc3ccccc3[nH]2)c1N [Example 27, 2-[(1H-Benzimidazol-2-ylthio)methyl]-6-methylbenzenamine]
Second: Cc1cccc2[nH]c(SCc3ccccc3N)nc12 [Example 7, 2-[[(4-Methyl-1H-benzimidazol-2-yl)thio]methyl]benzenamine]
The melting point of the first is higher: 130 to 134 °C for the first, 125 to 127 °C for the second.

First: CCOC(=O)c1ccc(N)c(CSc2nc3ccccc3[nH]2)c1 [Example 70, Ethyl 4-amino-3-[(1H-benzimidazol-2-ylthio)methyl]benzoate]
Second: CCOC(=O)c1ccc(N)c(CSc2nc3cc(OC)ccc3[nH]2)c1 [Example 72, Ethyl 4-amino-3-[[(5-methoxy-1H-benzimidazol-2-yl)thio]methyl]benzoate]
The melting point of the first is higher: 174 to 176 °C for the first, 140 to 146 °C for the second.

First: Cc1cccc(N)c1C[S+]([O-])c1nc2ccccc2[nH]1 (centres unmarked) (hydrate or solvate) [Example 24, 2-[(1H-Benzimidazol-2-ylsulfinyl)methyl]-3-methylbenzenamine ¼ hydrate]
Second: CNc1ccccc1C[S+]([O-])c1nc2ccccc2[nH]1.O (centres unmarked) (hydrate or solvate) [Example 32, 2-[(1H-Benzimidazol-2-ylsulfinyl)methyl]-N-methylbenzenamine monohydrate]
The melting point of the first is higher: 152 to 153 °C for the first, 117 to 120 °C for the second.

Compared with COc1ccc(N)c(CSc2nc3ccccc3[nH]2)c1.Cl.Cl, COc1ccc2[nH]c(SCc3ccccc3N)nc2c1 [Example 11, 2-[[(5-methoxy-1H-benzimidazol-2-yl)thio]methyl]benzenamine] is lower in melting point: 206 to 208 °C for the first, 140 to 142 °C for the second.

First: Cc1cc(C)c(N)c(CSc2nc3ccccc3[nH]2)c1 [Example 29, 2-[(1H-Benzimidazol-2-ylthio)methyl]-4,6-dimethylbenzenamine]
Second: Nc1cc(Cl)ccc1CSc1nc2ccccc2[nH]1 [Example 17, 2-[(1H-Benzimidazol-2-ylthio)methyl]-5-chlorobenzenamine]
The melting point of the first is lower: 139 to 141 °C for the first, 158 to 160.5 °C for the second.

First: CNc1ccccc1CSc1nc2ccccc2[nH]1 [Example 31, 2-[(1H-Benzimidazol-2-ylthio)methyl]-N-methylbenzenamine]
Second: CN(C)c1ccccc1CSc1nc2ccccc2[nH]1 [Example 1, 2-[(1H-Benzimidazol-2-ylthio)methyl]-N,N-dimethylbenzenamine]
The melting point of the first is lower: 109 to 112 °C for the first, 167 to 170 °C for the second.

Cc1cc2nc([S+]([O-])Cc3ccccc3N)[nH]c2cc1C (centres unmarked) (hydrate or solvate) [Example 10, 2-[[(5,6-Dimethyl-1H-benzimidazol-2-yl)sulfinyl]methyl]benzenamine ¼ hydrate] gave a melting point of 179 to 181 °C.

With COc1cc(Cl)c(C)c(CSc2nc3ccccc3[nH]2)c1N [Example 58, 2-[(1H-Benzimidazol-2-ylthio)methyl]-4-chloro-6-methoxy-3-methylbenzenamine] the melting point was ~ 100 °C.
In the case of Cc1ccc(C[S+]([O-])c2nc3ccccc3[nH]2)c(N)c1C (centres unmarked) (hydrate or solvate) [Example 53, 2-[(1H-Benzimidazol-2-ylsulfinyl)methyl]-5,6-dimethylbenzenamine ¼ hydrate], the melting point is reported as 160 °C (dec.).
